According to patent publication US20250353898A1, “SERPIN PEPTIDE DERIVATIVES AND METHODS OF USING THE SAME” (priority 2022, published 2025):
Positions of bridges follow the written chain, without caps; N, C: chain ends. Non-standard residues stand in square brackets, D forms with d. Residues, ends and D or L forms follow the SMILES beside them. Nle = CCCC[C@H](N)C(=O)O

Key:
[1] = molecular target: T1, TMPRSS2 (Homo sapiens, UniProt O15393); assay: cell-based; conditions: overexpressing cell system; read-out: IC50 against TMPRSS2 (converted)
T1 construct: expressed in transfected cells

[2] = system: IL-6; assay: IL-6 secretion in IMG microglial cells after LPS (ELISA); assay type: cell-based; conditions: IMG microglial cells, LPS 100 ng/ml, 24 hours
[3] = system: NFκB; assay: NFκB reporter assay (SEAP) in THP1-XBlue-MD2-CD14 cells after LPS; assay type: cell-based
Description: The NFκB inducible Secreted Embryonic Alkaline Phosphatase (SEAP) was measured in the supernatant and read for absorbance.
(§1) Various SERPIN peptide derivatives were screened in vitro for their ability to reduce TNFα and NFκB secretion via LRP-1 activation. The NFκB reporter cells (THP1-XBlue-MD2-CD14 cells) were treated with each peptide derivative at various concentrations, up to 100 μg/ml before being insulted with LPS (5 ng/ml) and incubated overnight. The NFκB inducible Secreted Embryonic Alkaline Phosphatase (SEAP) was measured in the supernatant and read for absorbance. IMG Microglial cells were treated with each peptide derivative at various concentrations, up to 100 μg/ml before LPS (100 ng/ml) stimulation for 24 hours. An ELISA was used to measure TNFα in the supernatant ([…]).

[4] = system: TNFα; assay: TNFα secretion in IMG microglial cells after LPS (ELISA); assay type: cell-based; conditions: FIG. 6A/7, up to 50 μg/mL, LPS 100 ng/ml 24 hours; versus SP163M, SA7
Description: In the NFκB reporter cells, the NFκB inducible Secreted Embryonic Alkaline Phosphatase (SEAP) was measured in the supernatant. TNFα secretion in the supernatant was measured via ELISA.
as §1

T1 sequence (O15393 whole entry): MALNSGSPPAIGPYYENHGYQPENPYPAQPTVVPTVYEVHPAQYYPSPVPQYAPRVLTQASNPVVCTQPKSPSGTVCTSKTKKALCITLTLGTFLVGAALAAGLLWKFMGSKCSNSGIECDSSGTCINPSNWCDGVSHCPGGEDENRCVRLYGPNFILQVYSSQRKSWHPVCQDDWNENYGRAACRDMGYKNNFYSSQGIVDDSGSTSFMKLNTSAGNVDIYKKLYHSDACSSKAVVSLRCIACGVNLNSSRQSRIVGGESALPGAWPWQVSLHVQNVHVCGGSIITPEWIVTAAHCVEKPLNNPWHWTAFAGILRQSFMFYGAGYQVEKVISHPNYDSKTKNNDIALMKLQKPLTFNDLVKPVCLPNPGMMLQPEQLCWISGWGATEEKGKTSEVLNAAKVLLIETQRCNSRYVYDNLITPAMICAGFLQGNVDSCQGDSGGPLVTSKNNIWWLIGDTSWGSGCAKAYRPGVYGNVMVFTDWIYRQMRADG

`CCCC[C@@H]1NC(=O)[C@H](CC(C)C)NC(=O)[C@H](Cc2ccccc2)NC(=O)[C@H](C(C)C)NC(=O)[C@H](Cc2ccccc2)NC(=O)[C@@H]2CCCN2C(=O)[C@@H](NC(=O)[C@H](CCCNC(=N)N)NC(=O)[C@H](CCCNC(=N)N)NC(=O)[C@H](CCCNC(=N)N)NC(C)=O)CSSC[C@@H](C(=O)O)NC1=O` [SA7] (Ac-RRRCPFVFL[Nle]C-OH; disulfide 4-11) was tested, and the IC50 [1] was 57.2 nM.

With “Ac- RRRKFT[Nal]]LD (cyclic) [Peptide A3-7]” the “EC50 IL-6” value [2] was 3.651 µg/mL and the “EC50 NFκB” value ([3]; NFκB reporter cells, LPS 5 ng/ml) was 22.41 µg/mL.

For “HN-RRRFVFLAD (cyclic) (not fully specified; cyclised or stapled) [Peptide A2-3]”, the “activity in reducing NFκB activation” value ([3]; FIG. 6B/7, up to 50 μg/mL, LPS 5 ng/ml 24 hours, versus SP163M, SA7) was “superior activities” and the “activity in reducing TNFα” value [4] was “superior activities in reducing TNFα”.
